Tests used:
[1] = test system: HuapoAI transgenic mice; assay: Evaluation of triglyceride and cholesterol level in HuapoAI transgenic mice; assay type: in vivo; settings: for change in vivo at 30 mg/kg / inhibition in vivo at 30 mg/kg: Mus musculus, 168 h, 30 mg/kg daily oral gavage 7 days; for change in vivo at 30 mg/kg: percent increase in FPLC HDLc area under the curve; for inhibition in vivo at 30 mg/kg: serum, male human apoAI transgenic mice, read-out: % Triglyceride Reduction
Experimental: Five to six week old male mice, transgenic for human apoAI [C57Bl/6-tgn(apoa1)lrub, Jackson Laboratory, Bar Harbor, Me.] were housed five per cage (10″×20″×8″ with aspen chip bedding) with food (Purina 5001) and water available at all times. After an acclimation period of 2 weeks, animals were individually identified by ear notches, weighed, and assigned to groups based on body weight. Beginning the following morning, mice were dosed daily by oral gavage for 7 days using a 20 gauge, 1½″ curved disposable feeding needle (Popper & Sons). Treatments were test compounds (30 mg/kg), a positive control (fenofibrate, 100 mg/kg) or vehicle [1% carboxymethylcellulose (w/v)/0.25% Tween80 (w/v); 0.2 ml/mouse]. Prior to termination on day 7, mice were weighed and dosed. Three hours after dosing, animals were anesthetized by inhalation of isoflurane (2-4%; Abbott Laboratories, Chicago, Ill.) and blood obtained via cardiac puncture (0.7-1.0 ml). Whole blood was transferred to serum separator tubes (Vacutainer SST), chilled on ice, and permitted to clot. Serum was obtained after centrifugation at 4° C. and frozen until analysis for triglycerides, total cholesterol, compound levels, and serum lipoprotein profile by fast protein liquid chromatography (FPLC) coupled to an inline detection system. After sacrifice by cervical dislocation, the liver, heart and epididymal fat pads were excised and weighed.
The animals dosed with vehicle had average triglycerides values of 60-80 mg/dl, which were reduced by the positive control fenofibrate (33-58 mg/dl with a mean reduction of 37%). The animals dosed with vehicle had average total serum cholesterol values of 140-180 mg/dl, which were increased by fenofibrate (190-280 mg/dl, with a mean elevation of 41%). […] Fenofibrate increased the amount of HDLc (68-96 v-sec with a mean percent increase of 48%).
(§1) Glucose was measured colorimetrically using commercially purchased reagents (Sigma #315-500). According to the manufacturers, the procedures were modified from published work (McGowan, M. W., Artiss, J. D., Strandbergh, D. R. & Zak, B. Clin Chem, 20:470-5 (1974) and Keston, A. Specific colorimetric enzymatic analytical reagents for glucose. Abstract of papers 129th Meeting ACS, 31C (1956).); and depend on the release of a mole of hydrogen peroxide for each mole of analyte, coupled with a color reaction first described by Trinder (Trinder, P. Determination of glucose in blood using glucose oxidase with an alternative oxygen acceptor. Ann Clin Biochem, 6:24 (1969)). The absorbance of the dye produced is linearly related to the analyte in the sample. The assays were further modified in our laboratory for use in a 96 well format. Standards (Sigma #339-11, Sigma #16-11, and Sigma #CC0534 for glucose triglycerides and total cholesterol, respectively), quality control plasma (Sigma # A2034), and samples (2 or 5 μl/well) were measured in duplicate using 200 μl of reagent. An additional aliquot of sample, pipetted to a third well and diluted in 200 μl water, provided a blank for each specimen. Plates were incubated at room temperature (18, 15, and 10 minutes for glucose, triglycerides and total cholesterol, respectively) on a plate shaker (DPC Micormix 5) and absorbance read at 500 nm (glucose and total cholesterol) or 540 nm (triglycerides) on a plate reader (Wallac Victor 1420). Sample absorbances were compared to a standard curve (100-800, 10-500, and 100-400 mg/dl for glucose, triglycerides and total cholesterol, respectively). Values for the quality control sample were always within the expected range and the coefficient of variation for samples was below 10%. All samples from an experiment were assayed at the same time to minimize inter-assay variability.
Serum lipoproteins were separated and cholesterol quantitated with an in-line detection system. Sample was applied to a Superose® 6 HR 10/30 size exclusion column (Amersham Pharmacia Biotech) and eluted with phosphate buffered saline-EDTA at 0.5 ml/min. […]

[2] = test system: db/db mice; assay: Evaluation of glucose levels in db/db mice; assay type: in vivo; settings: Mus musculus, 168 h; 30 mg/kg daily oral gavage 7 days, male db/db mice; 100% = lean values; read-out: Glucose Normalization %
Experimental: Five week old male diabetic (db/db) mice [C57BlKs/j-m +/+ Lepr(db), Jackson Laboratory, Bar Harbor, Me.] or lean littermates (db+) were housed 6 per cage (10″×20″×8″ with aspen chip bedding) with food (Purina 5015) and water available at all times. After an acclimation period of 2 weeks, animals were individually identified by ear notches, weighed, and bled via the tail vein for determination of initial glucose levels. Blood was collected (100 μl) from unfasted animals by wrapping each mouse in a towel, cutting the tip of the tail with a scalpel, and milking blood from the tail into a heparinized capillary tube (Fisher) balanced on the edge of the bench. Sample was discharged into a heparinized microtainer with gel separator (VWR) and retained on ice. Plasma was obtained after centrifugation at 4° C. and glucose measured immediately. Remaining plasma was frozen until the completion of the experiment, when glucose and triglycerides were assayed in all samples. Animals were grouped based on initial glucose levels and body weights. Beginning the following morning, mice were dosed daily by oral gavage for 7 days using a 20 gauge, 1½″ curved disposable feeding needle. Treatments were test compounds (30 mg/kg), a positive control agent (30 mg/kg) or vehicle [1% carboxymethylcellulose (w/v)/0.25% Tween80 (w/v); 0.3 ml/mouse]. On day 7, mice were weighed and bled (tail vein) 3 hours after dosing. Twenty-four hours after the 7th dose (i.e., day 8), animals were bled again (tail vein). Samples obtained from conscious animals on days 0, 7 and 8 were assayed for glucose. After the 24 hour bleed, animals were weighed and dosed for the final time. Three hours after dosing on day 8, animals were anesthetized by inhalation of isoflurane and blood obtained via cardiac puncture (0.5-0.7 ml). Whole blood was transferred to serum separator tubes, chilled on ice and permitted to clot. Serum was obtained after centrifugation at 4° C. and frozen until analysis for compound levels. After sacrifice by cervical dislocation, the liver, heart and epididymal fat pads were excised and weighed.
The animals dosed with vehicle had average triglycerides values of 170-230 mg/dl, which were reduced by the positive PPARγ control (70-120 mg/dl with a mean reduction of 50%). Male db/db mice were hyperglycemic (average glucose of 680-730 mg/dl on the 7th day of treatment), while lean animals had average glucose levels between 190-230 mg/dl.
as §1, with “Sample absorbances were compared to a standard curve (100-800, 10-500, and 100-400 mg/dl for glucose, triglycerides and total cholesterol, respectively). Values for the quality control sample were always within the expected range and the coefficient of variation for samples was below 10%. All samples from an experiment were assayed at the same time to minimize inter-assay variability.” left out

[3] = biological target: T1, huPPARγ (Homo sapiens, UniProt P37231); assay: Cotransfection assay in CV-1 cells, AOX PPRE luciferase reporter; assay type: cell-based; design: expressed in transfected cells; host or cells: CV-1 cells; settings: cotransfection efficacy relative to PPARγ agonist reference molecule
T1 sequence (P37231 1-505): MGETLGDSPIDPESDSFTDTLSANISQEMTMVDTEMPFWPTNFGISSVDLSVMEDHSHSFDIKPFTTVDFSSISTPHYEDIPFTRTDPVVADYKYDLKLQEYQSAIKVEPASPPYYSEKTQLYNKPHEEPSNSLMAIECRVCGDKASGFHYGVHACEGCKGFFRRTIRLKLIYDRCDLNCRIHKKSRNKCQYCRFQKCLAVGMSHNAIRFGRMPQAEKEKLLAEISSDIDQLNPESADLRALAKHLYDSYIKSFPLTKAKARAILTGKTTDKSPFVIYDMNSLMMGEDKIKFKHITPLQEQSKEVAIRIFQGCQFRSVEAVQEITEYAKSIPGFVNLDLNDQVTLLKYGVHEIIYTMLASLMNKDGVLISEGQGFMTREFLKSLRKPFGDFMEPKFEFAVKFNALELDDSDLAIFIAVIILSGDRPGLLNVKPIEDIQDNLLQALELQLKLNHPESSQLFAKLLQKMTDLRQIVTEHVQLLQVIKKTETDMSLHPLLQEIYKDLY
T1 sequence (P19793 1-462 partner): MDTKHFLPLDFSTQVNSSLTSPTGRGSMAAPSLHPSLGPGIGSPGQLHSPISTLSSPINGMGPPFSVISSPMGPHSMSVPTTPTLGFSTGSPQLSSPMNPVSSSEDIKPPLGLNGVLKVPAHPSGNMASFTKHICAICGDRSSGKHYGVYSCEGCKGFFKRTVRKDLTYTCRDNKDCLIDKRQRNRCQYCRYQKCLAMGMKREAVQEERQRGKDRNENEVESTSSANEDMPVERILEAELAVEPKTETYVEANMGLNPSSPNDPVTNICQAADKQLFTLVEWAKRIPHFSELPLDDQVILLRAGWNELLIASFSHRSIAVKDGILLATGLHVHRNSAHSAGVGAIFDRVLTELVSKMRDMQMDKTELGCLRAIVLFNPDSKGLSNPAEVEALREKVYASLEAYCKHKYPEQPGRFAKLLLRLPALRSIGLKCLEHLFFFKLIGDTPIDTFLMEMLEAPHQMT
Experimental: (§2) DNA-dependent binding (ABCD binding) was carried out using SPA technology with PPAR receptors. Tritium-labeled PPARα and PPARγ agonists were used as radioligands for generating displacement curves and IC50 values with compounds of the invention. Cotransfection assays were carried out in CV-1 cells. The reporter plasmid contained an acylCoA oxidase (AOX) PPRE and TK promoter upstream of the luciferase reporter cDNA. Appropriate PPARs and RXRα were constitutively expressed using plasmids containing the CMV promoter. […] In order to eliminate such interference, a GAL4 chimeric system was used in which the DNA binding domain of the transfected PPAR was replaced by that of GAL4, and the GAL4 response element was utilized in place of the AOX PPRE. Cotransfection efficacy was determined relative to PPARα agonist and PPARγ agonist reference molecules. Efficacies were determined by computer fit to a concentration-response curve, or in some cases at a single high concentration of agonist (10 μM). For binding or cotransfection studies with receptors other than PPARs, similar assays were carried out using appropriate ligands, receptors, reporter constructs, etc., for that particular receptor.
(§3) These studies were carried out to evaluate the ability of compounds of the invention to bind to and/or activate various nuclear transcription factors, particularly huPPARα (“hu” indicates “human”) and huPPARγ. These studies provide in vitro data concerning efficacy and selectivity of compounds of the invention. Furthermore, binding and cotransfection data for compounds of the invention were compared with corresponding data for marketed compounds that act on either huPPARα or huPPARγ.
(§4) Binding and cotransfection data for representative compounds of the invention are compared with corresponding data for reference compounds in Table II.

[4] = test system: huPPARα; assay: Cotransfection assay in CV-1 cells, luciferase reporter (GAL4 chimeric system); assay type: cell-based, human; settings: cotransfection efficacy relative to PPARα agonist reference molecule
Experimental: as §2, §3, §4

[5] = 100 mg/kg daily oral gavage 7 days, versus vehicle

Q: With `Cc1oc(-c2ccccc2)nc1COc1ccc(OC(C)(C)C(=O)O)cc1` [Example 4, 2-Methyl-2-[4-(5-methyl-2-phenyloxazol-4-ylmethoxy)phenoxy]propionic acid] as the compound, how does the melting point read?
A: The melting point was 136 to 138 °C.

Q: What does the source list for `Cc1oc(-c2ccccc2)nc1CCOc1ccc(OC(C)(Cc2ccccc2)C(=O)O)cc1` (centres unmarked) [Example 6, 2-Methyl-2-{4-[2-(5-methyl-2-phenyloxazol-4-yl)ethoxy]phenoxy}-3-phenylpropionic acid]?
A: change in vivo at 30 mg/kg [1]: 20%; inhibition in vivo at 30 mg/kg [1]: 35.4%; inhibition in vivo at 30 mg/kg [2]: 65%

Q: For `C#Cc1cccc(-c2nc(CCOc3ccc(OC(C)(C)C(=O)O)cc3)c(C)o2)c1` [Example 10, 2-(4-{2-[2-(3-Ethynylphenyl)-5-methyloxazol-4-yl]ethoxy}phenoxy)-2-methylpropionic acid], which melting point is on record?
A: The melting point was 131 to 134 °C.

Q: With `CCc1cc(OC(C)(C)C(=O)O)ccc1OCCc1nc(-c2ccccc2)oc1C` [Example 31A, 2-{3-Ethyl-4-[2-(5-methyl-2-phenyloxazol-4-yl)ethoxy]phenoxy}-2-methylpropionic acid] as the compound, how does the change in vivo at 30 mg/kg [1] read?
A: Its change in vivo at 30 mg/kg is 98%.

Q: What about the inhibition in vivo at 30 mg/kg [1] of the same compound?
A: Its inhibition in vivo at 30 mg/kg is -6.4%.

Q: What about the inhibition in vivo at 30 mg/kg [2] of the same compound?
A: The inhibition in vivo at 30 mg/kg was 19%.

Q: With `CC(C)(Oc1ccc(C(=O)c2ccc(Cl)cc2)cc1)C(=O)O` [Fenofibric acid, reference compound] as the compound, how does the “huPPARγ CTF Eff. (%)” value [3] read?
A: Its value is 0%.

Q: And the “huPPARα CTF Eff. (%)” value [4]?
A: Its value is 16%.

Q: With `Cc1c(C)c2c(c(C)c1O)CCC(C)(COc1ccc(CC3SC(=O)NC3=O)cc1)O2` (centres unmarked) [Troglitazone, reference compound] as the compound, how does the “huPPARα CTF Eff. (%)” value [4] read?
A: The value was 0%.

Q: With `CC(C)OC(=O)C(C)(C)Oc1ccc(C(=O)c2ccc(Cl)cc2)cc1` [fenofibrate, reference compound] as the compound, how does the HDLc peak area ([1]; 100 mg/kg daily oral gavage 7 days, FPLC of pooled sera, vehicle 47-62 v-sec) read?
A: The HDLc peak area was 68-96 v-sec.

Q: What about the “mean elevation of total serum cholesterol” value [1, 5] of the same compound?
A: The value was 41%.

Q: And the “mean percent increase of HDLc” value [1, 5]?
A: Its value is 48%.

Q: And the “mean reduction of triglycerides” value [1, 5]?
A: The value was 37%.

Q: And the average triglycerides values ([1]; 100 mg/kg daily oral gavage 7 days, vehicle 60-80 mg/dl)?
A: The average triglycerides values was 33 to 58 mg/dL.

Q: What about the “average total serum cholesterol values” ([1]; 100 mg/kg daily oral gavage 7 days, vehicle 140-180 mg/dl) of the same compound?
A: The value was 190 to 280 mg/dL.
